# Measurements reported in patent US8952024B2, “Herbicidal pyrimidone derivatives” (E I du Pont de Nemours and Company, priority 2009, dated 2015).
# Where two headings read alike, the source gives them in different places.
# Assays:
# Type in all cases: in vivo
# [1] = test system: morningglory (Ipomoea coccinea); assay: Test B pre-/postemergence plant response; conditions: for pest or weed control at 16 g/ha: 16 g ai/ha; for pest or weed control at 16 g/ha / pest or weed control at 31 g/ha / pest or weed control at 62 g/ha: read-out: Plant response rating, Morningglory; for pest or weed control at 31 g/ha: 31 g ai/ha; for pest or weed control at 62 g/ha: 62 g ai/ha
# Description: (§1) Seeds of plant species selected from blackgrass (Alopecurus myosuroides), downy bromegrass (Bromus tectorum), green foxtail (Setaria viridis), Italian ryegrass (Lolium multiflorum), wheat (Triticum aestivum), wild oat (Avena fatua), deadnettle (henbit deadnettle, Lamium amplexicaule), galium (catchweed bedstraw, Galium aparine), bermudagrass (Cynodon dactylon), Surinam grass (Brachiaria decumbens), cocklebur (Xanthium strumarium), corn (Zea mays), large crabgrass (Digitaria sanguinalis), woolly cupgrass (Eriochloa villosa), giant foxtail (Setaria faberii), goosegrass (Eleusine indica), johnsongrass (Sorghum halepense), kochia (Kochia scoparia), lambsquarters (Chenopodium album), morningglory (Ipomoea coccinea), nightshade (eastern black nightshade, Solanum ptycanthum), yellow nutsedge (Cyperus esculentus), pigweed (Amaranthus retroflexus), ragweed (common ragweed, Ambrosia elatior), Russian thistle (Salsola kali), soybean (Glycine max), sunflower (common oilseed sunflower, Helianthus annuus) and velvetleaf (Abutilon theophrasti) were planted into a blend of loam soil and sand and treated preemergence with test compounds formulated in a non-phytotoxic solvent mixture which included a surfactant.
# (§2) At the same time, plants selected from these crop and weed species and also winter barley (Hordeum vulgare), canarygrass (Phalaris minor), chickweed (Stellaria media) and windgrass (Apera spica-venti) were planted in pots containing Redi-Earth® planting medium (Scotts Company, 14111 Scottslawn Road, Marysville, Ohio 43041) comprising spaghnum peat moss, vermiculite, wetting agent and starter nutrients and treated with postemergence applications of some of the test chemicals formulated in the same manner. Plants ranged in height from 2 to 18 cm (1- to 4-leaf stage) for postemergence treatments.
# (§3) Treated plants and controls were maintained in a greenhouse for 13 to 15 days, after which time all treated plants were visually evaluated and compared to controls. Plant response ratings, summarized in Table B, are based on a scale of 0 to 100 where 0 is no effect and 100 is complete control. A dash (-) response means no test result.
# [2] = test system: wheat (Triticum aestivum); assay: Test B pre-/postemergence plant response; conditions: for plant injury at 31 g/ha: 31 g ai/ha; for plant injury at 62 g/ha: 62 g ai/ha
# Description: as §1, §2, §3
# [3] = test system: cocklebur (Xanthium strumarium); assay: Test B pre-/postemergence plant response; conditions: for pest or weed control at 16 g/ha: 16 g ai/ha; for pest or weed control at 16 g/ha / pest or weed control at 31 g/ha / pest or weed control at 62 g/ha: read-out: Plant response rating, Cocklebur; for pest or weed control at 31 g/ha: 31 g ai/ha; for pest or weed control at 62 g/ha: 62 g ai/ha
# Description: as §1, §2, §3
# [4] = test system: soybean (Glycine max); assay: Test B pre-/postemergence plant response; conditions: for plant injury at 31 g/ha: 31 g ai/ha, scale 0 to 100 (0 no effect, 100 complete control); for plant injury at 62 g/ha: 62 g ai/ha
# Description: as §1, §2, §3
# [5] = test system: wheat (Triticum aestivum); assay: Test A pre-/postemergence plant response; conditions: Triticum aestivum, post-emergence, 240 h; Postemergence, 125 g ai/ha; visual injury, 0 to 100 scale (0 no effect, 100 complete control), approx. ten days; read-out: Wheat plant response rating
# Outline: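 Approximately ten days after concurrent pre- and postemergence spraying in a greenhouse, plants were compared with untreated controls and rated visually for injury, 0 = no effect to 100 = complete control. Preemergence spray was directed onto loam/sand soil; postemergence targeted 1–2 leaf seedlings.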
# [6] = Ipomoea, pre-emergence, Preemergence, scale 0 to 100 (0 no effect, 100 complete control)
# [7] = Preemergence, 125 g ai/ha, 0 to 100 scale
# [8] = Triticum aestivum, pre-emergence, Preemergence, scale 0 to 100 (0 no effect, 100 complete control), read-out: Plant response rating, Wheat
# [9] = Xanthium strumarium, pre-emergence, Preemergence, scale 0 to 100 (0 no effect, 100 complete control)
structure (smiles),measurement,setting,value
"O=C1CCCC(O)=C1C(=O)c1cnc(-c2ccccc2)n(-c2ccccc2)c1=O [Compound 2, 5-[(2-hydroxy-6-oxo-1-cyclohexen-1-yl)carbonyl]-2,3-diphenyl-4(3H)-pyrimidinone]",pest or weed control at 16 g/ha,"[1]; Ipomoea, post-emergence, Postemergence, 0 to 100 scale",55%
same,pest or weed control at 31 g/ha,"[1]; Ipomoea, post-emergence, Postemergence, scale 0 to 100 (0 no effect, 100 complete control)",70%
same,pest or weed control at 62 g/ha,"[1]; Ipomoea, post-emergence, Postemergence, scale 0 (no effect) to 100 (complete control), 13 to 15 days",80%
same,pest or weed control at 125 g/ha,"[1]; Ipomoea, post-emergence, Postemergence, 125 g ai/ha, visual rating after 13 to 15 days, scale 0 (no effect) to 100 (complete control)",95%
same,pest or weed control at 16 g/ha,[1]; [6],0%
same,pest or weed control at 31 g/ha,[1]; [6],0%
same,pest or weed control at 62 g/ha,"[1]; Ipomoea, pre-emergence, Preemergence, scale 0 to 100, 0 no effect, 100 complete control",20%
same,Morningglory plant response rating,[1]; [7],75
same,Wheat plant response rating,[2]; [7],0
same,plant injury at 16 g/ha,"[2]; Triticum aestivum, post-emergence, 16 g ai/ha, Postemergence, 0 to 100 scale, read-out: Plant response rating, Wheat",0%
same,plant injury at 31 g/ha,"[2]; Triticum aestivum, post-emergence, Postemergence, scale 0 to 100 (0 no effect, 100 complete control), read-out: Plant response rating, Wheat",5%
same,plant injury at 62 g/ha,"[2]; Triticum aestivum, post-emergence, Postemergence, scale 0 (no effect) to 100 (complete control), 13 to 15 days, read-out: Plant response rating, Wheat",10%
same,plant injury at 125 g/ha,"[2]; Triticum aestivum, post-emergence, Postemergence, 125 g ai/ha, visual rating after 13 to 15 days, scale 0 (no effect) to 100 (complete control)",20%
same,plant injury at 31 g/ha,[2]; [8],0%
same,plant injury at 62 g/ha,[2]; [8],0%
same,Cocklebur plant response rating,[3]; [7],80
same,pest or weed control at 16 g/ha,"[3]; Xanthium strumarium, post-emergence, Postemergence, 0 to 100 scale",75%
same,pest or weed control at 31 g/ha,"[3]; Xanthium strumarium, post-emergence, Postemergence, scale 0 to 100 (0 no effect, 100 complete control)",80%
same,pest or weed control at 62 g/ha,"[3]; Xanthium strumarium, post-emergence, Postemergence, scale 0 (no effect) to 100 (complete control), 13 to 15 days",90%
same,pest or weed control at 125 g/ha,"[3]; Xanthium strumarium, post-emergence, Postemergence, 125 g ai/ha, visual rating after 13 to 15 days, scale 0 (no effect) to 100 (complete control)",95%
same,pest or weed control at 16 g/ha,[3]; [9],0%
same,pest or weed control at 31 g/ha,[3]; [9],0%
same,pest or weed control at 62 g/ha,"[3]; Xanthium strumarium, pre-emergence, Preemergence, scale 0 to 100, 0 no effect, 100 complete control",65%
same,plant injury at 16 g/ha,"[4]; Glycine max, post-emergence, 16 g ai/ha, Postemergence, 0 to 100 scale, read-out: Plant response rating, Soybean",75%
same,plant injury at 31 g/ha,"[4]; Glycine max, post-emergence, Postemergence, read-out: Plant response rating, Soybean",80%
same,plant injury at 62 g/ha,"[4]; Glycine max, post-emergence, Postemergence, scale 0 (no effect) to 100 (complete control), 13 to 15 days, read-out: Plant response rating, Soybean",90%
same,plant injury at 125 g/ha,"[4]; Glycine max, post-emergence, Postemergence, 125 g ai/ha, visual rating after 13 to 15 days, scale 0 (no effect) to 100 (complete control)",95%
same,plant injury at 31 g/ha,"[4]; Glycine max, pre-emergence, Preemergence, read-out: Plant response rating, Soybean",15%
same,plant injury at 62 g/ha,"[4]; Glycine max, pre-emergence, Preemergence, scale 0 to 100, 0 no effect, 100 complete control, read-out: Plant response rating, Soybean",60%
same,Soybean plant response rating,[4]; [7],70
same,plant injury at 125 g/ha,[5],0%
